Measurements from PubChem BioAssay (NCI).
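Test compounds were applied to cells in 96-well plates for 48 hours at 5 doses. The concentration for 50% growth inhibition is given as GI50. At the TGI there is no net growth.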

Key:
Experiment in all cases: NCI anticancer screen, dose series, 48 h
[1] = test system: 786-0 renal
[2] = test system: OVCAR-5 ovarian
[3] = test system: TK-10 renal
[4] = test system: XF 498 CNS
[5] = test system: DLD-1 colon
[6] = test system: HL-60(TB) leukemia
[7] = test system: SK-OV-3 ovarian
[8] = test system: A549 NSCLC
[9] = test system: ACHN renal
[10] = test system: HS 578T breast

Row | Compound | TGI [1] [µM] | TGI [2] [µM] | TGI [3] [µM] | TGI [4] [µM] | TGI [5] [µM] | TGI [6] [µM] | TGI [7] [µM] | TGI [8] [µM] | GI50 [1] [µM] | GI50 [2] [µM] | GI50 [9] [µM] | TGI [9] [µM] | GI50 [10] [µM] | TGI [10] [µM] | GI50 [6] [µM] | GI50 [3] [µM] | GI50 [5] [µM] | GI50 [7] [µM] | GI50 [8] [µM]
1 | N#CC(C#N)=C1CCC2C(=C(C#N)C#N)CCC12 (configuration not stated) | > 100 | > 100 | > 100 | > 100 | > 100 | > 100 | > 100 | > 100 | – | – | – | – | – | – | – | – | – | – | –
2 | O=c1[nH]c(=O)n(C2OC(CO)C(O)C2O)cc1F (configuration not stated) | 21.1 | 26 | > 62.2 | > 100 | > 100 | 26.3 | > 97.4 | 38.4 | 0.0462 | 0.0442 | 0.0236 | 21 | 0.031 | > 100 | 0.025 | – | – | – | –
3 | FC(F)(F)c1nc(Br)[nH]c1C(F)(F)F | > 100 | > 100 | > 100 | > 100 | > 100 | > 100 | > 100 | > 100 | – | – | – | > 100 | – | – | – | – | – | – | –
4 | CC(=O)[CH-]C(=O)c1ccccc1.CC(=O)[CH-]C(=O)c1ccccc1.CC(=O)[CH-]C(=O)c1ccccc1.[Br-].[Zr+4] | > 100 | > 100 | > 100 | – | > 100 | > 100 | > 100 | > 100 | 67.1 | 29.8 | 54.3 | > 100 | – | – | 52.7 | > 100 | 28.1 | 74.8 | > 100
5 | CC(C)(C)OC1=C(OC(C)(C)C)C(O)(c2ccc(Cl)cc2)C1=O (configuration not stated) | > 100 | > 100 | > 100 | – | > 100 | > 100 | > 100 | > 100 | – | – | – | > 100 | – | – | – | – | – | – | –
6 | C=C1C(C(=O)O)C1C(=O)O (configuration not stated) | > 100 | > 100 | > 100 | > 100 | > 100 | > 100 | > 100 | > 100 | – | – | – | > 100 | – | – | – | – | – | – | –
7 | CSc1cc(C(C)(C)C)ccc1C(O)c1ccc(C(C)(C)C)cc1SC | 22.7 | 27 | 30.6 | 23.6 | 21.7 | 21.2 | 32.2 | 24.4 | – | – | – | 23.6 | – | – | – | – | – | – | –
8 | CCc1ccccc1NC(=O)C(=O)C(C#N)c1c(Cl)cccc1Cl (configuration not stated) | > 100 | – | > 100 | > 100 | > 100 | > 100 | > 100 | > 100 | – | – | – | > 100 | – | – | – | – | – | – | –
9 | CNC(=O)NCCN1N=C(C)/C(=C\c2ccccc2)CC1=O | > 100 | > 100 | > 100 | > 100 | > 100 | > 100 | > 100 | > 100 | – | – | – | > 100 | – | – | – | – | – | – | –
10 | CC[P+]1(c2ccccc2)CCCCC1 | > 100 | > 100 | > 100 | – | > 100 | > 100 | > 100 | > 100 | – | – | – | > 100 | – | – | – | – | – | – | –
11 | C=CCC1C(=O)CC2(C)C(CC=C)C(=O)CC12C (configuration not stated) | > 100 | > 100 | > 100 | > 100 | > 100 | > 100 | > 100 | > 100 | – | – | – | > 100 | – | – | – | – | – | – | –
12 | NC(=O)c1ncn2c(=O)n(CCCl)nnc12 | 195 | 608 | 651 | 149 | 720 | 223 | 130 | 628 | 46.4 | – | > 71.2 | 385 | – | 695 | – | – | – | – | –
13 | O=C1CCc2ccc(O)c(c2)Oc2ccc(cc2)[C@@H]2O[C@@H]2CO1 | > 100 | > 100 | > 100 | 30.6 | > 100 | > 100 | > 100 | > 100 | – | – | – | > 100 | – | – | – | – | – | – | –
14 | N#CC1=C(c2ccccc2)OC2(N)OC(c3ccccc3)=C(C#N)C12C#N (configuration not stated) | > 100 | > 100 | > 100 | > 100 | > 100 | – | > 100 | > 100 | – | – | – | > 100 | – | – | – | – | – | – | –
15 | CN(C)CCNC(=O)c1cccc2c1nc(-c1ccncc1)c1ccccc12 | 17.8 | 23.7 | 7.77 | – | 14.2 | > 100 | 24.7 | 12.6 | – | – | – | 10.6 | – | – | – | – | – | – | –
16 | O=C(OCc1ccccc1)n1cccc1 | > 100 | > 100 | > 100 | > 100 | > 100 | > 100 | > 100 | > 100 | – | – | – | > 100 | – | – | – | – | – | – | –
17 | CCOC(=O)CCn1cnc(N)n1 | > 100 | > 100 | > 100 | > 100 | > 100 | > 100 | > 100 | > 100 | – | – | – | > 100 | – | – | – | – | – | – | –
18 | Cc1ccc(NC(=O)CCC(=O)C2Cc3ccccc3C2=O)cc1C (configuration not stated) | > 100 | > 100 | > 100 | > 100 | > 100 | > 100 | > 100 | > 100 | – | – | – | > 100 | – | – | – | – | – | – | –
19 | O=C1c2ccccc2C(=O)c2sc(Nc3ccc([N+](=O)[O-])cc3)nc21 | 12.3 | 29.8 | 26.4 | 4.18 | 11.5 | 2.52 | 36.8 | 41.7 | – | – | – | 7.55 | – | 22.2 | – | – | – | – | –
20 | O=C(O)c1[nH]c2c([N+](=O)[O-])cc([N+](=O)[O-])cc2c1C(=O)O | > 100 | > 100 | > 100 | – | – | > 100 | > 100 | > 100 | – | – | – | > 100 | – | > 100 | – | – | – | – | –
21 | CC1(C)CN(CCNc2nccc(-c3c(-c4cccc(O)c4)nc4sccn34)n2)S(=O)(=O)N1 | > 33.2 | > 33.2 | > 33.2 | – | – | 30.2 | > 33.2 | > 33.2 | 11.2 | > 33.2 | 7.07 | > 33.2 | 4.72 | 25 | 10.2 | > 22.6 | – | 7.86 | 14.2
22 | CCC(=C(c1ccc(OCCN2CCCC2)cc1)c1ccc(OCCN2CCCC2)cc1)c1ccc(Cl)cc1 | 1.1 | 1.11 | 1.33 | – | – | 1.27 | 1.14 | 1.21 | 0.591 | 0.568 | 0.585 | 1.06 | 0.659 | 1.52 | 0.606 | 0.628 | – | 0.583 | 0.594
